Data as given in publication PMC9973354 (mBio, 2022).
Values joined by “and” are separate entries in the source; they are usually repeats but may differ in a detail not shown here. Equal values may be shown once. Read-outs that look alike come from different tables or passages of the source. Starred links: 1 amine or outer side, 2 acyl side, 3 side chain; linkers in the order of their positions; H or OH if unused. Positions of bridges follow the written chain, without caps; N, C: chain ends. Non-standard residues stand in square brackets, D forms with d. Residues, ends and D or L forms follow the SMILES beside them. ξ: configuration not given here. X1 = O=C([C@@H]1CCN=C2C(N[*:1])=Cc3cc(O)c(O)cc3N21)[*:2]; ξOrn(N(OH)CHO) = NC(CCCN(O)C=O)C(=O)O; Suc = O=C(CCC(=O)[*:2])[*:1]; ξK = NCCCCC(N)C(=O)O; ξS = NC(CO)C(=O)O

Key:
FpvB W347V R648C = target: T1, FpvB W347V R648C (Pseudomonas aeruginosa, UniProt A0A0H2ZFZ5, R648C/W347V); assay: Whole-cell fluorescence quenching, FpvB W347V R648C; assay type: binding; details: FpvB W347V R648C
T1 sequence (A0A0H2ZFZ5 23-802 W347V/R648C): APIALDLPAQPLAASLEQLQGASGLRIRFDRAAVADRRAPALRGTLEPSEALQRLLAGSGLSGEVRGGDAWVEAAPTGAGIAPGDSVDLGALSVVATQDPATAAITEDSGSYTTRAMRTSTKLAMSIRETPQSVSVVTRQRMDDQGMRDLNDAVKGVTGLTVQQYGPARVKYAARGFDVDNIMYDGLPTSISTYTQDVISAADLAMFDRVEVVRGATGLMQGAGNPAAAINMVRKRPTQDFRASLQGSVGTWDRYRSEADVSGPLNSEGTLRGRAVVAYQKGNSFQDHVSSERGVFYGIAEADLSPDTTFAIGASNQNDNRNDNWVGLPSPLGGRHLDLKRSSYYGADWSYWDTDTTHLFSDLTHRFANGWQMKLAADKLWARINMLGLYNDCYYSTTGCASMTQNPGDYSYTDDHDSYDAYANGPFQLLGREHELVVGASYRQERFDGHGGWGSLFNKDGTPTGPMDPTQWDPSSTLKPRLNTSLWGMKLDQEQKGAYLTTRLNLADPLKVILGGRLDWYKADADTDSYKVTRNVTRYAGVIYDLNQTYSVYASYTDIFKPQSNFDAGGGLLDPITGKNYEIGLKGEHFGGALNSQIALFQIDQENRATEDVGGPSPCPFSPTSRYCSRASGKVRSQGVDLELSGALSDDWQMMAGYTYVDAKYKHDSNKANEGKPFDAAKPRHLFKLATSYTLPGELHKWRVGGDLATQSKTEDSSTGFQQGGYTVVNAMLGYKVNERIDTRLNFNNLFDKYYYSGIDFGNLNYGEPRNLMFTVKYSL
Description: (§1) Quenching assays with the two xenosiderophores were repeated for the quadruple TBDT mutant expressing WT FpvB, FpvB R191A R648C, or W347V R648C.
(§2) Cells were cultured overnight in LB with carbenicillin (200 μg/mL) at 37°C with shaking at 200 rpm. Cells were subcultured (1:200 dilution) in 10:90 plus 2% arabinose for 4 h without carbenicillin at 37°C with shaking at 200 rpm. Cells were harvested by centrifugation for 5 min and 6,000 × g and resuspended in sterile 1× phosphate-buffered saline (PBS) (pH 7.4); 1× PBS was made from a 10× stock (80 g NaCl, 2 g KCl, 26.8 g Na2 HPO4-7H2O, 2.4 g KH2PO4 in 1 L of deionized H2O) with 10 μM Alexa Fluor 594 C5 maleimide for microscopy or fluorescein-5-maleimide for fluorescence quenching and recovery assays and incubated in the dark at room temperature for 30 min on a shaking incubator at 37°C (200 rpm). Excess dye was quenched with 1 mM dithiothreitol (DTT) (Sigma) to stop the reaction. Cells were washed 3× with PBS. For fluorescence recovery assays, cells were incubated with 1× PBS plus 0.4% glucose at 37°C with shaking at 200 rpm. Glucose was prepared as a 20% stock (wt/vol) in 1× PBS and filter sterilized. Cells were spun down and washed 3× with 1× PBS and resuspended in 1× PBS for quenching assays and 1× PBS plus 0.4% glucose for fluorescence recovery assays.
(§3) For fluorescence quenching and recovery assays, cells were diluted to an OD600 of 0.1 for both types of assays, and 148 μL was added into wells of a 96-well black plate (Corning). Fluorescence was recorded for 5 min at 1-min intervals at 37°C (BioTek Neo; excitation, 494 nm; emission, 520 nm). After 5 min, 2 μL of each serial dilution for ferrioxamine-Fe^3+, ferrichrome-Fe^3+, and pyoverdine-Fe^3+ or DMSO for vehicle controls was added to each well. Fluorescence was recorded immediately for quenching assays and for 1 h at 1-min intervals for fluorescence recovery assays. Background fluorescence was subtracted from all fluorescence readings and 1-F/F0 was used to calculate the degree of quenching, where F0 is the initial fluorescence. Kd was calculated using GraphPad Prism using a one-site specific binding model or a two-site model. For fluorescence recovery assays, background was subtracted from all fluorescence readings and F/F0 expressed as a percent of control was plotted versus time.

FpvB R648C = target: T2, FpvB R648C (Pseudomonas aeruginosa, UniProt A0A0H2ZFZ5, R648C); assay: Fluorescence recovery assay (siderophore uptake by FpvB); assay type: cell-based
T2 sequence (A0A0H2ZFZ5 23-802 R648C): T1 sequence (A0A0H2ZFZ5 23-802 W347V/R648C)
Description: Cells were equilibrated for 5 min prior to introduction of the siderophores. Fluorescence was recorded every min for 1 h. Carbonyl cyanide m-chlorophenylhydrazone (CCCP) was used as a control to inhibit fluorescence recovery through dissipation of the proton motive force (PMF) ([2], [3]), which is required for uptake.
as §2, with “Glucose was prepared as a 20% stock (wt/vol) in 1× PBS and filter sterilized.” left out
as §3, with “After 5 min, 2 μL of each serial dilution for ferrioxamine-Fe^3+, ferrichrome-Fe^3+, and pyoverdine-Fe^3+ or DMSO for vehicle controls was added to each well.” left out, “For fluorescence recovery assays, background was subtracted from all fluorescence readings and F/F0 expressed as a percent of control was plotted versus time.” left out

FpvB = assay: Western blot of FLAG-tagged FpvB expression after compound treatment; assay type: cell-based, Pseudomonas aeruginosa; details: WT PA14 fpvB-FLAG; 10 μg/mL siderophores, 64 μg/mL DSX, 10:90
PA14 ΔpvdA ΔpchA mutant = assay: Growth curves with DSX and siderophores, ΔpvdA ΔpchA; assay type: cell-based, Pseudomonas aeruginosa; details: 64 μg/mL DSX + 10 μg/mL siderophore, 20 h
Description: Supplementary file : FIG S1 (A) FpvB is expressed in WT PA14 and the ΔfpvA mutant grown in 10:90. PilF was used as a loading control for outer membrane proteins. (B) FpvA is expressed from WT PA14 grown in 10:90. […] PilF was used as a loading control for outer membrane proteins. (C) Growth curves of PA14 and mutants with DSX and different siderophores in 10:90. PA14, ΔfpvA, ΔfpvB, ΔfpvA ΔfpvB, and ΔpvdA ΔpchA strain growth. Blue indicates control, purple indicates treatment with 64 μg/mL DSX, yellow indicates treatment with 10 μg/mL pyoverdine (PA14), and red indicates treatment with 64 μg/mL DSX and 10 μg/mL pyoverdine (PA14). (D) ΔfpvA, ΔfpvA ΔfpvB, and ΔpvdA ΔpchA strain growth. Blue indicates control, purple indicates treatment with 64 μg/mL DSX, grey indicates treatment with 10 μg/mL ferrichrome, and red indicates treatment with 64 μg/mL DSX and 10 μg/mL ferrichrome. (E) ΔfpvA, ΔfpvA ΔfpvB, and ΔpvdA ΔpchA strain growth. […] Download FIG S1, EPS file, 8.5 MB.
As a control, a ΔpvdA ΔpchA mutant unable to make pyoverdine and pyochelin was also tested. Growth of this mutant was inhibited by DSX.

FpvB R191A R648C = target: T3, FpvB R191A R648C (Pseudomonas aeruginosa, UniProt A0A0H2ZFZ5, R191A/R648C); assay: Whole-cell fluorescence quenching, FpvB R191A R648C; assay type: binding; details: FpvB R191A R648C
T3 sequence (A0A0H2ZFZ5 23-802 R191A/R648C): T1 sequence (A0A0H2ZFZ5 23-802 W347V/R648C)
Description: as §1, §2, §3

[1] = one-site model, read-out: Kd (converted)

SMILES	affinity (Kd not reached, no saturation at highest concentration) (FpvB W347V R648C)	fluorescence recovery (FpvB R648C; siderophore at 1/2 Kd (1/2 Kd2 for ferrioxamine B), recorded for 1 h)	stimulation of FpvB expression (FpvB)	growth with siderophore in the presence of DSX (PA14 ΔpvdA ΔpchA mutant)	affinity (Kd not reached, no saturation at highest concentration) (FpvB R191A R648C)	Kd (FpvB W347V R648C; [1]) [µM]	fluorescence recovery (FpvB R648C)	Kd (FpvB R191A R648C; [1])
NCCCCC(NC(=O)C(CO)NC(=O)[C@@H]1CCN=C2C(NC(=O)CCC(=O)O)=Cc3cc(O)c(O)cc3N21)C(=O)NCC(=O)NC(CCCN(O)C=O)C(=O)NC1CCCCNC(=O)C(CO)NC(=O)C(CCCN(O)C=O)NC1=O (stereo partly shown) [pyoverdine] (Suc-[X1][ξS][ξK]G[ξOrn(N(OH)CHO)][ξK][ξOrn(N(OH)CHO)][ξS]; lactam 6-C)	reduced affinity	no recovery	None of the compounds stimulated expression	restored growth	reduced affinity	–	–	–
CC(=O)N(O)CCCCCNC(=O)CCC(=O)N(O)CCCCCNC(=O)CCC(=O)N(O)CCCCCN [ferrioxamine B]	–	–	None of the compounds stimulated expression	rescued growth	–	874	~ 50 % of the control	535 µM and 480 µM
